According to patent US10189794B2, “Heteroaryl compounds and uses thereof” (Celgene CAR LLC, priority 2013, dated 2019):

Test system: Huh7 cells
Assay: Cell proliferation, Huh7 (CellTiter Glo)
Format: cell-based
Conditions: Homo sapiens, Huh-7; Huh7; 120 hr; read-out: Cell Proliferation GI50 (nM) HUH
Procedure: The growth inhibition (GI50) values were determined by Graph Pad Prism.

SMILES | GI50
C=CC(=O)NC1COCC1Nc1ncc2cc(-c3c(Cl)c(OC)cc(OC)c3Cl)c(=O)n(C)c2n1 (centres unmarked) [I-211] | < 100 nM
C=CC(=O)NC1COCC1Nc1ncc2c(n1)N(CC1CC1)C(=O)N(c1c(Cl)c(OC)cc(OC)c1Cl)C2 (centres unmarked) [I-212] | < 100 nM
C=CC(=O)NC1COCC1Nc1ncc2c(n1)N(Cc1cnn(C)c1)C(=O)N(c1c(Cl)c(OC)cc(OC)c1Cl)C2 (centres unmarked) [I-213] | < 100 nM
C=CC(=O)NC1COCC1Nc1ncc2c(n1)N(Cc1ccn(C)n1)C(=O)N(c1c(Cl)c(OC)cc(OC)c1Cl)C2 (centres unmarked) [I-215] | 101 to 500 nM
C=CC(=O)NC1COCC1Nc1ncc2c(n1)N(Cc1cc[nH]n1)C(=O)N(c1c(Cl)c(OC)cc(OC)c1Cl)C2 (centres unmarked) [I-216] | 101 to 500 nM
C=CC(=O)NC1COCC1Nc1ncc2c(n1)N(CC)C(=O)N(c1c(Cl)c(OC)cc(OC)c1Cl)C2 (centres unmarked) [I-217] | < 100 nM
C=CC(=O)N[C@H]1CCCC[C@H]1Nc1ncc2cc(-c3c(Cl)c(OC)cc(OC)c3Cl)c(=O)n(C)c2n1 [I-223] | 101 to 500 nM
C=CC(=O)N[C@H]1CCCC[C@H]1Nc1ncc2c(n1)N(C)C(=O)N(c1c(F)c(OC)cc(OC)c1Br)C2 [I-228] | 101 to 500 nM
COc1cc(OC)c(Cl)c(N2Cc3cnc(Nc4ccccc4)nc3N(C)C2=O)c1Cl [I-238] | < 100 nM
C=CC(=O)N[C@@H]1COC[C@@H]1Nc1ncc2cc(-c3c(Cl)c(OC)cc(OC)c3Cl)c(=O)n(C)c2n1 [I-240] | > 1000 nM
C=CC(=O)N[C@H]1COC[C@H]1Nc1ncc2cc(-c3c(Cl)c(OC)cc(OC)c3Cl)c(=O)n(C)c2n1 [I-241] | < 100 nM
C=CC(=O)Nc1cc(OC)ccc1Nc1ncc2cc(-c3c(Cl)c(OC)cc(OC)c3Cl)c(=O)n(C)c2n1 [I-242] | < 100 nM

Test system: MDA-MB-453 cells
Assay: Cell proliferation, MDA-MB-453 (CellTiter Glo)
Format: cell-based
Conditions: Homo sapiens; MDA-MB-453; 96 hr; read-out: Cell Proliferation GI50 (nM) MDA
Procedure: For both MDA-MB-453 and Huh7 cells the starting density was 5000 cells per well. The cells were allowed to settle down for 4 hr and were then treated with 5, 1.25, 0.31, 0.078, 0.020 or 0.005 μM of test compound for: 96 hr for MDA-MB-453 and 120 hr for Huh7 cells. Cell viability was determined by CellTiter Glo (Promega, Madison, Wis.) and the results were converted to cell numbers using a standard curve. The growth inhibition (GI50) values were determined by Graph Pad Prism.
The results of these experiments show the ability of compounds to inhibit cell growth in FGFR dependant cell lines and are depicted in Table 8, in the columns titled “Cell Proliferation GI50 (nM)”. MDA-MB-453 cell results fall under the heading “MDA” and Huh7 cell results fall under the heading “Huh.”

SMILES | GI50
C=CC(=O)Nc1ccccc1Nc1ncc2c(n1)N(C1CC1)C(=O)N(c1c(Cl)c(OC)cc(OC)c1Cl)C2 [I-23] | < 100 nM
C=CC(=O)Nc1ccccc1Nc1ncc2c(n1)N(Cc1ccc(Cl)c(OC)c1)C(=O)N(c1c(Cl)c(OC)cc(OC)c1Cl)C2 [I-24] | < 100 nM
C=CC(=O)Nc1cc(N2CCCCC2)ccc1Nc1ncc2c(n1)N(C)C(=O)N(c1cc(OC)cc(OC)c1)C2 [I-31] | 101 to 500 nM
C=CCN1C(=O)N(c2cc(OC)cc(OC)c2)Cc2cnc(Nc3ccccc3NC(=O)C=C)nc21 [I-32] | 501 to 999 nM
C=CC(=O)Nc1ccccc1Nc1ncc2c(n1)N(C1CC1)C(=O)N(c1cc(OC)cc(OC)c1)C2 [I-34] | 501 to 999 nM
C=CS(=O)(=O)Nc1ccccc1Nc1ncc2c(n1)N(C)C(=O)N(c1cc(OC)cc(OC)c1)C2 [I-67] | 501 to 999 nM
C=CC(=O)Nc1ccccc1Nc1ncc2c(n1)N(C)C(=O)N(c1cc(OC)cc(OC)c1Cl)C2 [I-75] | 101 to 500 nM
C=CC(=O)Nc1cc(-c2cnn(C)c2)ccc1Nc1ncc2c(n1)N(C)C(=O)N(c1cc(OC)cc(OC)c1)C2 [I-77] | 101 to 500 nM
C=CC(=O)Nc1ccc(-c2nccs2)cc1Nc1ncc2c(n1)N(C)C(=O)N(c1cc(OC)cc(OC)c1)C2 [I-78] | 101 to 500 nM
C=CC(=O)N[C@H]1CCCC[C@H]1Nc1ncc2c(n1)N(Cc1ccccc1)C(=O)N(c1c(Cl)c(OC)cc(OC)c1Cl)C2 [I-82] | < 100 nM
C=CC(=O)Nc1ccccc1Nc1ncc2c(n1)N(Cc1cscn1)C(=O)N(c1c(Cl)c(OC)cc(OC)c1Cl)C2 [I-86] | < 100 nM
C=CC(=O)Nc1ccccc1Nc1ncc2c(n1)N(Cc1cccc(C#N)c1)C(=O)N(c1cc(OC)cc(OC)c1)C2 [I-90] | 101 to 500 nM
C=CC(=O)Nc1ccccc1Nc1ncc2c(n1)N(Cc1nccs1)C(=O)N(c1c(Cl)c(OC)cc(OC)c1Cl)C2 [I-91] | < 100 nM
C=CC(=O)N[C@H]1CCCC[C@H]1Nc1ncc2c(n1)N(Cc1nccs1)C(=O)N(c1c(Cl)c(OC)cc(OC)c1Cl)C2 [I-92] | 101 to 500 nM
C=CC(=O)Nc1ccccc1Nc1ncc2c(n1)N(C)C(=O)N(c1cc(OC)cc(OC)c1F)C2 [I-108] | 101 to 500 nM
C=CC(=O)Nc1ccccc1Nc1ncc2c(n1)N(CC1CC1)C(=O)N(c1cc(OC)cc(OC)c1F)C2 [I-109] | < 100 nM
C=CC(=O)Nc1ccccc1Nc1ncc2c(n1)N(Cc1ccnc(N)c1)C(=O)N(c1c(Cl)c(OC)cc(OC)c1Cl)C2 [I-135] | < 100 nM
